Activity calls are given as the source filed them.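 How the source made its calls: active means signal-decreasing dose-response curve whose fitted half-maximal concentration is at or below twice the highest valid tested dose; inconclusive means flat fit at 30 to 70% signal loss, or poor fit; inactive means the rest.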
Experiment: cytotoxicity in mammalian cells, dose response, cytotoxicity control for PDI inhibitor project, cell-based, 24 h, luminescence, cherry-picked samples (AID 624285)
Conditions: NIH3T3/HeLa viability, CellTiter-Glo ATP luminescence, 24 h; at 35 µM (top of the series)

In the case of `COc1ccccc1NS(=O)(=O)c1cccc(C(=O)NCC2(N(C)C)CCCCC2)c1`, the activity change, negative = cytotoxicity is reported as -8.59% (inactive).

For `CC(=O)OC[C@H]1O[C@@H](Oc2cc(O)cc3oc(-c4ccc(O)cc4)cc(=O)c23)[C@H](O[C@@H]2O[C@@H](C)[C@H](O)[C@@H](O)[C@H]2O)[C@@H](O)[C@@H]1O`, the activity change, negative = cytotoxicity was -6.13% (inactive).

For `Cn1c(=O)n(CCCOc2ccc(Br)cc2)c2ccccc21`, the activity change, negative = cytotoxicity was -15.3% (inactive).

In the case of `Cc1ccc(-n2ncc3c(=O)[nH]c(SCC(=O)N4CCCc5ccccc54)nc32)cc1`, the activity change, negative = cytotoxicity is reported as -1.87% (inactive).

With `CN1C(=O)NC(c2ccccc2)C2=C1CN(c1cccc(C(F)(F)F)c1)C2=O` (configuration not stated) the activity change, negative = cytotoxicity was -4.45% (inactive).

In the case of `O=c1c(O[C@H]2O[C@@H](CO)[C@H](O)[C@@H](O)[C@@H]2O)c(-c2ccc(O)cc2)oc2cc(O)cc(O)c12`, the activity change, negative = cytotoxicity is reported as -3.13% (inactive).

With `Cn1cc(Cl)c(C(=O)OCC(=O)Nc2ccccc2)n1` the activity change, negative = cytotoxicity was -7.99% (inactive).

In the case of `CCOC(=O)c1oc2cccc(O)c2c1CN(Cc1ccccc1)C(C)=O`, the activity change, negative = cytotoxicity is reported as -17.2% (inactive).

In the case of `CC(=O)NC(Cc1c[nH]c2ccccc12)C(=O)OCC(=O)N1CCN(S(=O)(=O)c2ccc(Cl)cc2)CC1` (configuration not stated), the activity change, negative = cytotoxicity is reported as -10.5% (inactive).

With `Cc1cccc(C(=O)OCC(=O)N2CCCCCC2)c1O` the activity change, negative = cytotoxicity was -10.1% (inactive).

In the case of `Cc1ccc(CN(c2ccc(C(=O)NCc3ccccn3)cc2)S(C)(=O)=O)cc1`, the activity change, negative = cytotoxicity is reported as -10.4% (inactive).

For `COc1ccc(CN(C)C[C@@H]2Oc3c(NS(C)(=O)=O)cccc3C(=O)N([C@H](C)CO)C[C@H]2C)cc1`, the activity change, negative = cytotoxicity was 2.2% (inactive).

With `CCOc1ccc2[nH]c(=O)c(CN(CCO)C(=O)CC)cc2c1` the activity change, negative = cytotoxicity was -9.33% (inactive).

With `COc1ccc(N2CCN(CC(=O)c3ccc(O)c(C)c3O)CC2)cc1` the activity change, negative = cytotoxicity was -3.44% (inactive).

In the case of `O=C(NCc1ccccn1)Nc1cccc(Cl)c1`, the activity change, negative = cytotoxicity is reported as -8.23% (inactive).

In the case of `O=C(O)c1ccccc1Cc1ccc(F)c2ccccc12`, the activity change, negative = cytotoxicity is reported as -10.5% (inactive).

For `CCOc1ccc(/C=N/OC(C)C(=O)NCc2ccc3c(c2)OCO3)cc1` (configuration not stated), the activity change, negative = cytotoxicity was -5.51% (inactive).

In the case of `CCCCC1CCC(c2nc(-c3ccccn3)no2)CC1` (configuration not stated), the activity change, negative = cytotoxicity is reported as -12.5% (inactive).

In the case of `Cc1cc(=O)c(C(=O)Nc2cccc(C(=O)NC3CC3)c2)nn1-c1ccccc1`, the activity change, negative = cytotoxicity is reported as -3.19% (inactive).

In the case of `CCCNC(=O)c1cccc(COc2ccccc2OC)c1`, the activity change, negative = cytotoxicity is reported as -6.42% (inactive).

With `O=C(NCCN1CCOCC1)c1cccnc1SCc1ccccc1Cl` the activity change, negative = cytotoxicity was -5.22% (inactive).

In the case of `C[C@H](CO)N1C[C@H](C)[C@@H](CN(C)Cc2ccc(Oc3ccccc3)cc2)Oc2c(NS(C)(=O)=O)cccc2C1=O`, the activity change, negative = cytotoxicity is reported as 0.644% (inactive).

For `O=C(NC(=S)Nc1cccc(NC(=O)c2ccccc2)c1)c1cccc([N+](=O)[O-])c1`, the activity change, negative = cytotoxicity was -10.7% (inactive).

With `Cc1cc2c3c(c1)C1(C(=O)N3C(C)(C)CC2C)C(C#N)=C(N)Oc2n[nH]c(C)c21` (configuration not stated) the activity change, negative = cytotoxicity was -11.6% (inactive).

In the case of `C/C=C(\C)C(=O)NCCN1C2=NC[C@H](Cc3ccc(O)cc3)N2C[C@H]1Cc1ccc(O)cc1`, the activity change, negative = cytotoxicity is reported as -2.15% (inactive).

In the case of `C[C@@H]1O[C@@H](O[C@H]2[C@H](O)[C@@H](O)[C@H](Oc3c(-c4ccc(O)c(O)c4)oc4cc(O)cc(O)c4c3=O)O[C@@H]2CO)[C@H](O)[C@H](O)[C@H]1O`, the activity change, negative = cytotoxicity is reported as 1.36% (inactive).

In the case of `CCN(CC)C(=O)CSc1nnc([C@H](Cc2c[nH]c3ccccc23)NC(=O)OC(C)(C)C)o1`, the activity change, negative = cytotoxicity is reported as -8.74% (inactive).

For `O=C(NN1CC(C(=O)OCc2ccccc2F)CC1=O)c1ccccc1` (configuration not stated), the activity change, negative = cytotoxicity was -2.89% (inactive).

For `O=C(NC(Cc1ccc(O)cc1)C(=O)N=Nc1c(O)[nH]c2ccccc12)c1ccccc1` (configuration not stated), the activity change, negative = cytotoxicity was -6.54% (inactive).

In the case of `O=c1c(OC2OC(CO)C(O)C(O)C2O)c(-c2ccc(O)c(O)c2)oc2cc(O)cc(O)c12` (configuration not stated), the activity change, negative = cytotoxicity is reported as -0.384% (inactive).

For `CN(CCC(=O)Nc1ccc(Br)cc1)Cc1ccccc1`, the activity change, negative = cytotoxicity was -5.93% (inactive).

For `C[C@@H]1CN([C@H](C)CO)C(=O)Cc2cc(NC(=O)Nc3ccccc3)ccc2O[C@@H]1CN(C)Cc1ccccc1`, the activity change, negative = cytotoxicity was -3.74% (inactive).

In the case of `CC(NC(=O)COC(=O)Cc1ccccc1[N+](=O)[O-])c1ccccc1` (configuration not stated), the activity change, negative = cytotoxicity is reported as -0.036% (inactive).

With `CN(C1=NC(=O)C(CC(=O)Nc2ccc(Br)cc2)S1)c1ccc(O)cc1` (configuration not stated) the activity change, negative = cytotoxicity was -8.95% (inactive).

In the case of `CC[C@]12c3[nH]c4cc(-c5ccco5)ccc4c3CCN1C(=O)[C@@H](CC(=O)NCCCOC)C[C@@H]2C(=O)N1CCN(C(=O)C2CC2)CC1`, the activity change, negative = cytotoxicity is reported as -8.63% (inactive).

For `O=C(OCc1ccc(-c2ccccc2)cc1)c1cccc(O)c1`, the activity change, negative = cytotoxicity was -8.38% (inactive).

In the case of `NC(=O)c1ccc(NC(=O)COC(=O)c2ccc(Br)c(S(=O)(=O)N3CCOCC3)c2)cc1`, the activity change, negative = cytotoxicity is reported as -6.39% (inactive).

For `Cc1nc(C(=O)Nc2cccc(Cl)c2Cl)nn1-c1cc(OC(C)C)c(Cl)cc1Cl`, the activity change, negative = cytotoxicity was -11.1% (inactive).

For `C=CCn1c(C(CCCC)CC(O)COCC(C)C)n[nH]c1=S` (configuration not stated), the activity change, negative = cytotoxicity was -17.2% (inactive).

In the case of `CC(C)(C)OC(=O)N[C@@H](Cc1c[nH]c2ccccc12)c1nnc(SCC(N)=O)o1`, the activity change, negative = cytotoxicity is reported as -7.43% (inactive).

In the case of `COc1cccc(/C=N/NC(=O)CNC(=O)C(c2ccccc2)c2ccccc2)c1O`, the activity change, negative = cytotoxicity is reported as -15.7% (inactive).

In the case of `CCCCNC(=O)Nc1ccon1`, the activity change, negative = cytotoxicity is reported as -6.29% (inactive).

In the case of `CC(C)Cn1c(N)c(C(=O)COC(=O)c2ccc(O)cc2)c(=O)n(C)c1=O`, the activity change, negative = cytotoxicity is reported as -14.4% (inactive).

In the case of `NC(=O)CSc1nnc([C@@H](N)Cc2c[nH]c3ccccc23)o1`, the activity change, negative = cytotoxicity is reported as -10.6% (inactive).

With `CN(C)c1ccc(NC(=O)CN2C(=O)CC(c3ccccc3)=Nc3ccccc32)cc1` the activity change, negative = cytotoxicity was -19.2% (inactive).

With `COc1cccc(NC(=O)CN(C)C(=O)/C=C/c2cc(OC)ccc2OC)c1` the activity change, negative = cytotoxicity was -4.31% (inactive).

With `CC1Cc2ccccc2N1C(=O)CSc1nnc2sc3ccccc3n12` (configuration not stated) the activity change, negative = cytotoxicity was -7.39% (inactive).

For `CCC1Nc2ncnc(N3CCCCC3)c2N(Cc2ccc(C)cc2)C1=O` (configuration not stated), the activity change, negative = cytotoxicity was -16.7% (inactive).

In the case of `O=C1CCC(=O)N1CCc1c[nH]c2ccccc12`, the activity change, negative = cytotoxicity is reported as -6.09% (inactive).

For `O=C(CN1CCN(c2ccc(O)cc2)CC1)Nc1cc(S(=O)(=O)N2CCOCC2)ccc1Cl`, the activity change, negative = cytotoxicity was -13.3% (inactive).

In the case of `O=C(NCc1ccncc1)Nc1cc(Cl)ccc1Cl`, the activity change, negative = cytotoxicity is reported as -6.87% (inactive).

In the case of `CCOc1ccc(NC(=O)CCc2nnc3ccc(N4CCN(C)CC4)nn23)cc1`, the activity change, negative = cytotoxicity is reported as -6.93% (inactive).

For `O=C(O)C1C(c2ccccc2)C(C(=O)Oc2ccc(O)cc2)C1c1ccccc1` (configuration not stated), the activity change, negative = cytotoxicity was -8.75% (inactive).

In the case of `C=CCNc1ncnc2c1ncn2[C@H]1CN(Cc2cccc3ccccc23)C[C@@H](CO)O1`, the activity change, negative = cytotoxicity is reported as -8.26% (inactive).

With `CC1CCCN(c2cc3c(cc2[N+](=O)[O-])C(=O)N(c2ccccc2)C3=O)C1` (configuration not stated) the activity change, negative = cytotoxicity was 0.75% (inactive).

With `CNc1ncnc2c1ncn2[C@H]1CN(Cc2cccc3ccccc23)C[C@@H](CO)O1` the activity change, negative = cytotoxicity was -19.8% (inactive).

For `Cc1cc(NC(=O)COC(=O)C2CC(=O)N(c3ccccc3)C2)no1` (configuration not stated), the activity change, negative = cytotoxicity was -2.55% (inactive).

For `CC(=O)NC1(c2nnnn2CCOC(=O)Nc2ccc(Cl)cc2)CCCCC1`, the activity change, negative = cytotoxicity was 5.78% (inactive).

For `C[C@]12CC[C@@H]3c4ccc(O[C@@H]5O[C@H](C(=O)O)[C@@H](O)[C@H](O)[C@H]5O)cc4CC[C@H]3[C@@H]1C[C@@H](O)[C@@H]2O`, the activity change, negative = cytotoxicity was -6.13% (inactive).

In the case of `O=C(CSc1n[nH]c(-c2ccccc2)n1)Nc1ccccc1O`, the activity change, negative = cytotoxicity is reported as -6.55% (inactive).

With `C[C@@H]1CN([C@H](C)CO)C(=O)Cc2cc(NC(=O)Nc3ccccc3)ccc2O[C@H]1CN(C)Cc1ccccc1` the activity change, negative = cytotoxicity was 1.49% (inactive).

For `CN(C)S(=O)(=O)c1ccc(C(=O)Nc2ccc3nc(N4CCOCC4)sc3c2)cc1`, the activity change, negative = cytotoxicity was -20.7% (inactive).

For `CCOc1ccc2nc(NS(=O)(=O)Cc3ccccc3)sc2c1`, the activity change, negative = cytotoxicity was -6.13% (inactive).

With `CCn1c(SCC(=O)NC2CC2)nnc1-c1ccccc1` the activity change, negative = cytotoxicity was -6.27% (inactive).

In the case of `Cn1nnnc1SCC(=O)Nc1cc(C(F)(F)F)ccc1N1CCOCC1`, the activity change, negative = cytotoxicity is reported as -9.83% (inactive).

In the case of `Cc1ccc(N2CC(C(=O)Nc3nc4ccc(S(C)(=O)=O)cc4s3)CC2=O)cc1` (configuration not stated), the activity change, negative = cytotoxicity is reported as -4.02% (inactive).

In the case of `NC(=O)c1nsc(C(=O)N(CC(=O)NCc2ccc(F)cc2)Cc2ccco2)c1N`, the activity change, negative = cytotoxicity is reported as -24.6% (inactive).

For `O=C(c1c(O)cc(O)cc1O)C1c2c(cc(O)c3c2O[C@H](c2ccc(O)cc2)[C@@H](O)C3)OC1c1ccc(O)cc1` (some centres not stated), the activity change, negative = cytotoxicity was -5.6% (inactive).

In the case of `O=C(Nc1cccc(S(=O)(=O)Nc2ccc(SC(F)F)cc2)c1)C1CCC1`, the activity change, negative = cytotoxicity is reported as -13.1% (inactive).

With `CSc1cccc(NC(=O)CN(C)S(=O)(=O)c2ccc(F)cc2)c1` the activity change, negative = cytotoxicity was -8.11% (inactive).

With `O=C(/C=C/c1ccc(NC(=O)c2ccccc2-c2ccccc2C(=O)O)cc1)c1ccccc1` the activity change, negative = cytotoxicity was -8.34% (inactive).

With `O=C(CCc1ccc(O)cc1)NN=Cc1cc(Br)ccc1O` the activity change, negative = cytotoxicity was -12.9% (inactive).

With `COc1cc(C(C)=O)ccc1OCC(=O)NCCCn1nc(C)cc1C` the activity change, negative = cytotoxicity was -1.82% (inactive).

In the case of `C[C@@H]1O[C@@H](Oc2c(-c3cc(O)c(O)c(O)c3)oc3cc(O)cc(O)c3c2=O)[C@H](O)[C@H](O)[C@H]1O`, the activity change, negative = cytotoxicity is reported as -5.81% (inactive).

In the case of `CC(OC(=O)c1cccc(S(=O)(=O)N(C)C)c1)C(=O)NCC(=O)Nc1ccc(F)c(F)c1F` (configuration not stated), the activity change, negative = cytotoxicity is reported as -4.24% (inactive).

With `Cc1cc(NC(=O)CSc2[nH]c(=O)cc(C(F)(F)F)c2C#N)no1` the activity change, negative = cytotoxicity was -3.53% (inactive).

For `COC(=O)C(Cc1ccc(O)cc1)N1Cc2ccccc2C1=O` (configuration not stated), the activity change, negative = cytotoxicity was -9.13% (inactive).

— PubChem BioAssay AID624285 (Broad Institute, 2012)
